In patent publication US20240246913A1, “2-CARBOXYL-INDOLE INHIBITORS OF METALLO-BETA-LACTAMASES” (Oxford University Innovation Limited, priority 2021, published 2024):

Legend:
[1] = molecular target: VIM-2 (Escherichia coli, UniProt Q5U7L7); assay: MBL inhibition, FC-5 fluorescence assay, VIM-2; assay type: biochemical; conditions: FC-5 cephalosporin substrate, ranges of obtained pIC50, read-out: pIC50 VIM-2 (converted)
Procedure, shortened: (§1)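 Compound dilutions are incubated with enzyme and FC-5; the released fluorophore is read kinetically at ex 380/em 460 nm. Initial velocities are normalized and fitted (log inhibitor vs response, variable slope).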

[2] = Plasma protein binding, equilibrium dialysis, mouse plasma; assay type: in vitro ADME; conditions: pH 7.4, equilibrium dialysis (RED) 4 hours at 37° C., read-out: Plasma protein binding, fu, Mouse
Description: The fraction of unbound compound (fu) in plasma from human or other animal species was determined by equilibrium dialysis at 37° C. for 4 hours using the Rapid Equilibrium Dialysis (RED) device (ThermoFisher Scientific). The test compound at a concentration of 10 μM was added to plasma and dialyzed against isotonic phosphate buffer (67 mM, pH 7.4) over 4 hours at 37° C. After dialysis, compound concentrations in buffer and plasma were quantified by LC-MS/MS. In parallel the stability of the compound in plasma was determined by incubating drug-spiked plasma (10 μM) at 37° C. for 4 hours, meanwhile the control plasma sample was kept in the freezer. The concentration of the compound in both samples was quantified by LC-MS/MS (Waters Corp, Milford, MA, USA).

[3] = molecular target: VIM-1 (Pseudomonas aeruginosa, UniProt A0A0F7KYQ8); assay: MBL inhibition, FC-5 fluorescence assay, VIM-1; assay type: biochemical; conditions: FC-5 cephalosporin substrate, ranges of obtained pIC50, read-out: pIC50 VIM-1 (converted)
Procedure, shortened: as §1

[4] = Plasma protein binding, equilibrium dialysis, human plasma; assay type: in vitro ADME; conditions: pH 7.4, equilibrium dialysis (RED) 4 hours at 37° C., read-out: Plasma protein binding, fu, Human
Procedure, shortened: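 Compound at 10 μM in plasma dialysed against 67 mM phosphate buffer pH 7.4 for 4 h at 37° C. in RED device; unbound fraction from buffer and plasma levels by LC-MS/MS. Plasma stability checked in parallel over 4 h at 37° C. versus frozen control.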

[5] = tested on: Escherichia coli NDM-1; assay: Antibiotic susceptibility testing (MIC), EC NDM-1; assay type: cell-based; conditions: agar or broth dilution (CLSI/EUCAST)
Description: (§2) Antibiotic susceptibility testing was performed using the agar or broth dilution method, in line with the Clinical and Laboratory Standards Institute (CLSI) and European Committee on Antimicrobial Susceptibility Testing (EUCAST) requirements.

[6] = tested on: Escherichia coli NDM-7; assay: Antibiotic susceptibility testing (MIC), EC NDM-7; assay type: cell-based; conditions: agar or broth dilution (CLSI/EUCAST)
Description: as §2

[7] = Metabolic stability in mouse hepatocytes; assay type: in vitro ADME; conditions: cryopreserved mouse hepatocytes, 1 μM compound, 37° C., up to 90 min, read-out: Metabolic stability in hepatocytes, in vitro t1/2, Mouse
Description: (§3) Metabolic stability assays were performed in cryopreserved human and mouse hepatocytes. The hepatocytes were thawed and added to “Thawing media”, and centrifuged to pellet the hepatocytes. The cell pellet was taken up in Williams medium E (Invitrogen A1217601), the number of cells was calculated and adjusted to 1.0×10^6 cells/mi. The incubation was carried out on a heater-shaker at […], in a 24-well Picoplate (round bottom, PerkinElmer), using an incubation volume of […]. Thus, to obtain a final compound concentration of 1 μM, 0.7 μl of the 1 mM compound stock solution was pipetted to the wells of the plate. Reaction was initiated by adding 700 μl of cell suspension. Samples were incubated at 37° C. for […] and a zero sample was taken, i.e. 100 μl sample was removed to a 96-well plate and the reaction was quenched by adding 100 μl of 100% MeCN containing 50 nM Warfarin as an internal control. Consecutive samples were taken at time-points 5 min, 15 min, 30 min, 60 min, and 90 min. After finishing the experiment, samples were centrifuged at 3000 rpm for 15 min and before analysis by LC-MS/MS (Waters Corp, Milford, MA, USA).

[8] = Metabolic stability in human hepatocytes; assay type: in vitro ADME; conditions: cryopreserved human hepatocytes, 1 μM compound, 37° C., up to 90 min, read-out: Metabolic stability in hepatocytes, in vitro t1/2, Human
Description: as §3

[9] = molecular target: NDM-1 (Klebsiella pneumoniae, UniProt C7C422); assay: MBL inhibition, FC-5 fluorescence assay, NDM-1; assay type: biochemical; conditions: FC-5 cephalosporin substrate, fluorescence; ranges of obtained pIC50; read-out: pIC50 NDM-1 (converted)
NDM-1, sequence (C7C422 29-270, looked up, species assumed): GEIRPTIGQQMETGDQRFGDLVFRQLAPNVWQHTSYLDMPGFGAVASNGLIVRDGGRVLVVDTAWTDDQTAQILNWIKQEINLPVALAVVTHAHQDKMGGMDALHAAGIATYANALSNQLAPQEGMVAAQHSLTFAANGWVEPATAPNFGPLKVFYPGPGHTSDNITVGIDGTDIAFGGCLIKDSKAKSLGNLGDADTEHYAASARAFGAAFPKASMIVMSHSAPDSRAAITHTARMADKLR
Procedure, shortened: as §1

[10] = tested on: Acinetobacter baumannii NDM-1; assay: Antibiotic susceptibility testing (MIC), AB NDM-1; assay type: cell-based; conditions: agar or broth dilution (CLSI/EUCAST)
Description: as §2

[11] = molecular target: IMP-1 (Serratia marcescens, UniProt P52699); assay: MBL inhibition, FC-5 fluorescence assay, IMP-1; assay type: biochemical; conditions: FC-5 cephalosporin substrate, fluorescence; ranges of obtained pIC50; read-out: pIC50 IMP-1 (converted)
IMP-1, sequence (P52699 19-246, looked up, species assumed): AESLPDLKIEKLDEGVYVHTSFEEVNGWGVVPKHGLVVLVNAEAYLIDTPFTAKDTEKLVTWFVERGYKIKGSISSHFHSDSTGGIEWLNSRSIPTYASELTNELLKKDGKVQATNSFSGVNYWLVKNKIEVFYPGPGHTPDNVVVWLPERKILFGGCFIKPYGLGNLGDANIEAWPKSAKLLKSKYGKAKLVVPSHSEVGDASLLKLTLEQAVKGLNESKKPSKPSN
Procedure, shortened: as §1

Compound | IC50 [1] [nM] | fraction unbound at 4 h, 10 μM [2] | IC50 [3] [nM] | fraction unbound at 4 h, 10 μM [4] | MIC values EC NDM-1 [5] | MIC values EC NDM-7 [6] | half-life at 1 μM [7] [h] | half-life at 1 μM [8] [h] | IC50 [9] [nM] | MIC values AB NDM-1 [10] | IC50 [11] [nM]
CC(c1noc(CCCN)n1)c1cccc2c(-c3ccc(CS(C)(=O)=O)c(F)c3)c(C(=O)O)[nH]c12 (stereo not shown) [IC-62, 7-[1-[5-(3-Aminopropyl)-1,2,4-oxadiazol-3-yl]ethyl]-3-[3-fluoro-4-(methylsulfonylmethyl)phenyl]-1H-indole-2-carboxylic acid] | 0.1 to 1 | 0.005 to 0.05 | 0.1 to 1 | 0.05 to 0.25 | A (A = MIC values ≤ 1) | A (A = MIC values ≤ 1) | 2.5 to 6.67 | > 6.67 | < 0.1 | A (A = MIC values ≤ 1) | 1 to 10
C[C@@H](c1cccc2c(-c3ccc(CS(C)(=O)=O)c(F)c3)c(C(=O)O)[nH]c12)N1CC2(CN(C(=N)N)C2)OC1=O [IC-66, (S)-7-(1-(2-carbamimidoyl-6-oxo-5-oxa-2,7-diazaspiro[3.4]octan-7-yl)ethyl)-3-(3-fluoro-4-((methylsulfonyl)methyl)phenyl)-1H-indole-2-carboxylic acid] | 0.1 to 1 | 0.005 to 0.05 | 0.1 to 1 | > 0.25 | A (A = MIC values ≤ 1) | A (A = MIC values ≤ 1) | > 6.67 | 2.5 to 6.67 | 0.1 to 1 | B (B MIC values 2 ÷ 8) | > 10
C[C@@H](c1cccc2c(-c3ccc(CS(C)(=O)=O)c(F)c3)c(C(=O)O)[nH]c12)n1cc(CN2CC(N)C2)oc1=O [IC-67, (S)-7-(1-(5-((3-aminoazetidin-1-yl)methyl)-2-oxooxazol-3(2H)-yl)ethyl)-3-(3-fluoro-4-((methylsulfonyl)methyl)phenyl)-1H-indole-2-carboxylic acid] | 0.1 to 1 | 0.005 to 0.05 | 1 to 10 | 0.05 to 0.25 | A (A = MIC values ≤ 1) | A (A = MIC values ≤ 1) | > 6.67 | > 6.67 | < 0.1 | B (B MIC values 2 ÷ 8) | > 10
C[C@@H](c1cccc2c(-c3ccc(CS(C)(=O)=O)c(F)c3)c(C(=O)O)[nH]c12)n1cc(CCC2(N)CC2)oc1=O [IC-69, (S)-7-(1-(5-(2-(1-Aminocyclopropyl)ethyl)-2-oxooxazol-3(2H)-yl)ethyl)-3-(3-fluoro-4-((methylsulfonyl)methyl)phenyl)-1H-indole-2-carboxylic acid] | 0.1 to 1 | 0.005 to 0.05 | 0.1 to 1 | 0.05 to 0.25 | A (A = MIC values ≤ 1) | A (A = MIC values ≤ 1) | < 2.5 | > 6.67 | < 0.1 | B (B MIC values 2 ÷ 8) | > 10
C[C@@H](c1cccc2c(-c3ccc(CS(C)(=O)=O)c(F)c3)c(C(=O)O)[nH]c12)n1cc(CCCN)oc1=O [IC-70, (S)-7-(1-(5-(3-aminopropyl)-2-oxooxazol-3(2H)-yl)ethyl)-3-(3-fluoro-4-((methylsulfonyl)methyl)phenyl)-1H-indole-2-carboxylic acid] | 0.1 to 1 | 0.005 to 0.05 | 0.1 to 1 | 0.05 to 0.25 | A (A = MIC values ≤ 1) | A (A = MIC values ≤ 1) | 2.5 to 6.67 | > 6.67 | < 0.1 | A (A = MIC values ≤ 1) | > 10
C[C@@H](c1cccc2c(-c3ccc(CS(C)(=O)=O)c(F)c3)c(C(=O)O)[nH]c12)N1CC2(CCC(N)CC2)OC1=O (stereo partly drawn) [IC-71, (S)-7-(1-(8-amino-2-oxo-1-oxa-3-azaspiro[4.5]decan-3-yl)ethyl)-3-(3-fluoro-4-((methylsulfonyl)methyl)phenyl)-1H-indole-2-carboxylic acid] | 1 to 10 | > 0.25 | > 10 | > 0.25 | B (B MIC values 2 ÷ 8) | A (A = MIC values ≤ 1) | 2.5 to 6.67 | > 6.67 | 1 to 10 | C (C = MIC values > 8) | > 10
CC(c1cccc2c(-c3ccc(CS(C)(=O)=O)c(F)c3)c(C(=O)O)[nH]c12)n1cc(CCC2(N)CC2)oc1=O (stereo not shown) [IC-74, 7-(1-(5-(2-(1-aminocyclopropyl)ethyl)-2-oxooxazol-3(2H)-yl)ethyl)-3-(3-fluoro-4-((methylsulfonyl)methyl)phenyl)-1H-indole-2-carboxylic acid] | 0.1 to 1 | 0.05 to 0.25 | 0.1 to 1 | 0.05 to 0.25 | A (A = MIC values ≤ 1) | A (A = MIC values ≤ 1) | < 2.5 | > 6.67 | < 0.1 | B (B MIC values 2 ÷ 8) | > 10
CC(c1cccc2c(-c3ccc(CS(C)(=O)=O)c(F)c3)c(C(=O)O)[nH]c12)n1cc(CN)oc1=O (stereo not shown) [IC-79, 7-(1-(5-(Aminomethyl)-2-oxooxazol-3(2H)-yl)ethyl)-3-(3-fluoro-4-((methylsulfonyl)methyl)phenyl)-1H-indole-2-carboxylic acid] | 1 to 10 | 0.05 to 0.25 | 1 to 10 | > 0.25 | A (A = MIC values ≤ 1) | A (A = MIC values ≤ 1) | < 2.5 | > 6.67 | 0.1 to 1 | A (A = MIC values ≤ 1) | > 10
